Measured values taken from article PMC12022751, “In vitro and in silico analysis of synthesized N-benzyl indole-derived hydrazones as potential anti-triple negative breast cancer agents” (RSC Advances, 2025).

Experiments:
Format in all cases: cell-based, human
[1] = tested on: MDA-MB-231 breast cancer cell line; assay: MTT cytotoxicity assay on MDA-MB-231; settings: 48 h incubation; for Viability (%) Breast cancer cell line (MDA-MB-231): test concentration for viability not stated (6.5-50 μM tested); for IC50: triplicate
Method: (§1) All synthesized compounds (5a–5v) were tested using MTT assay at various concentrations (6.5 μM, 12.5 μM, 25 μM, and 50 μM) on the human breast cancer cell line MDA-MB-231. The cytotoxicity of the synthesized analogues was also assessed using human normal breast epithelial cell lines MCF-10A. Table 1 denotes IC50 values, percent inhibition, and cell viability for compounds 5a–v on MDA-MB-231. The dose–response analysis and calculations of IC50 values were performed using IBM SPSS statistics 26. The MTT assay on MDA-MB-231 confirmed the anticancer potential of all compounds. […] We then followed the same protocol as the cancer cells for the non-tumorigenic MCF-10A cells but with different concentrations (6.5 μM, 12.5 μM, 25 μM, and 50 μM). This was done to determine whether the toxic effects of the chemicals were selective for cancer cells compared to non-cancerous cells.
(§2) The in vitro cytotoxicity of the synthetic derivatives was evaluated using an MTT assay against a breast cancer cell line (MDA-MB-231).[33] The normal human breast cell line (MCF-10A) was maintained as a control in this study.[34,35] The cells were grown in DMEM with 10% FBS and 1% antibiotics (100 U mL^−1 penicillin). They were plated in a 96-well plate at a density of 1.0 × 10^4 cells per well and incubated for 24 hours at 37 °C in a 5% CO2 atmosphere. After discarding the medium, both cell lines were treated with various concentrations (6.5 μM, 12.5 μM, 25 μM, and 50 μM) of synthetic triazole derivatives.[36] After 48 h of incubation, [37] 20 μL of MTT solution (5 mg mL^−1) was added to each well and incubated for an additional 4 hours. After incubation, the medium was removed, and the formazan precipitate was dissolved in DMSO. The absorbance of the mixture was then measured at 570 nm using a microplate reader. All experiments were performed in triplicate, and the cytotoxicity was expressed as a percentage of cell viability compared to untreated control cells as per an earlier reported protocol by Sakhi et al.:[36]1 [drawing 1]

[2] = MTT cytotoxicity assay on normal MCF-10A cells; settings: human, MCF-10A normal breast epithelial cells, 48 h incubation, test concentration for viability not stated (6.5-50 μM tested), read-out: Viability (%) Normal cell line (MCF-10A)
Method: as §1, §2

[3] = tested on: MCF-10A normal breast epithelial cell line; assay: MTT cytotoxicity assay on normal MCF-10A cells; settings: Homo sapiens, MCF-10A, 48 h incubation
Method: as §1, §2

Compound | Viability (%) Breast cancer cell line (MDA-MB-231) [1] [%] | IC50 ([1]; Homo sapiens, MDA-MB-231, 48 h) [µM] | viability at 48 h [2] [%] | IC50 [3] [µM] | IC50 [1] [µM]
COc1ccc(C(=O)NN=Cc2cn(Cc3ccccc3)c3ccccc23)cc1 [Compound 5a, (E)-N′-[(1-benzyl-1H-indol-3-ylmethylene]-4-methoxybenzohydrazide] | 32.45 | 25.6 ± 0.4 | 82.7 | > 50 | 
O=C(NN=Cc1cn(Cc2ccccc2)c2ccccc12)c1ccccc1 [Compound 5b, (E)-N′-[(1-benzyl-1H-indo1-3-yl)methylene]benzohydrazide] | 18.56 | 17.2 ± 0.4 | 77.1 | > 50 | 
Cc1ccc(C(=O)NN=Cc2cn(Cc3ccccc3)c3ccccc23)cc1F [Compound 5c, (E)-N′-((l-benzyl-1H-indo1-3-yl)methylenel-3-fluoro-4-methylbenzohydrazide] | 37.40 | 27.1 ± 0.4 | 85.7 | > 50 | 
O=C(Cc1ccc(C(F)(F)F)cc1)NN=Cc1cn(Cc2ccccc2)c2ccccc12 [Compound 5d, (E)-N′-[(1-benzyl-1H-indo1-3-yl)methylene]-2-(4(trifluoromethyl)phenyl)acetohydrazide] | 27.94 | 22.6 ± 0.8 | 80.2 | > 50 | 
O=C(NN=Cc1cn(Cc2ccccc2)c2ccccc12)c1cccnc1 [Compound 5e, (E)-N′-[(1-benzyl-1H-indo1-3-yl)methylene]nicotinohydrazide] | 31.47 | 28.2 ± 0.5 | 85.7 | > 50 | 
O=C(NN=Cc1cn(Cc2ccccc2)c2ccccc12)c1ccc(Br)cc1 [Compound 5f, (E)-N′-[(1-benzyl-1H-indo1-3-yl)methylene]-4-bromobenzohydrazide] | 25.05 | 21.8 ± 0.2 | 82.4 | > 50 | 
O=C(NN=Cc1cn(Cc2ccccc2)c2ccccc12)c1cc2ccccc2cc1O [Compound 5g, (E)-N′-[(1-benzyl-1H-indo1-3-yl)methylene]-3-hydroxy-2-naphthohydrazide] | 29.76 | 24.4 ± 0.6 | 81.8 | > 50 | 
O=C(NN=Cc1cn(Cc2ccccc2)c2ccccc12)c1ccc(C(F)(F)F)cc1 [Compound 5h, (E)-N′-[(1-benzyl-1H-indo1-3-yl)methylene]-4-(trifluoromethyl)benzohydrazide] | 33.07 | 30.8 ± 0.4 | 78.1 | > 50 | 
O=C(NN=Cc1cn(Cc2ccccc2)c2ccccc12)c1ccco1 [Compound 5i, (E)-N′-[(1-benzyl-1H-indo1-3-yl)methylene]furan-2-carbohydrazide] | 23.53 | 17.2 ± 0.4 | 84.6 | > 50 | 19.2 ± 0.4
O=C(NN=Cc1cn(Cc2ccccc2)c2ccccc12)c1cccc(Cl)c1 [Compound 5j, (E)-N′-[(1-benzyl-1H-indo1-3-yl)methylene]-3-chlorobenzohydrazide] | 21.87 | 22.6 ± 0.1 | 80.8 | > 50 | 
O=C(NN=Cc1cn(Cc2ccccc2)c2ccccc12)c1ccncc1 [Compound 5k, (E)-N′-[(1-benzyl-1H-indo1-3-yl)methylene]isonicotinohydrazide] | 23.44 | 21.4 ± 0.2 | 80.1 | > 50 | 
O=C(NN=Cc1cn(Cc2ccccc2)c2ccccc12)c1ccccc1Br [Compound 5m, (E)-N′-[(1-benzyl-1H-indo1-3-yl)methylene]-2-bromobenzohydrazide] | 29.14 | 26.4 ± 0.2 | 87.2 | > 50 | 
O=C(Cc1ccccc1)NN=Cc1cn(Cc2ccccc2)c2ccccc12 [Compound 5n, (E)-N′-(l-benzyl-1H-indo1-3-yl)methylenel-2-phenylacetohydrazide] | 44.16 | 43.4 ± 0.2 | 79.8 | > 50 | 
O=C(NN=Cc1cn(Cc2ccccc2)c2ccccc12)c1ccccc1Cl [Compound 5o, (E)-N′-((l-benzyl-1H-indo1-3-yl)methylenel-2-chlorobenzohydrazide] | 20.37 | 19.6 ± 0.5 | 82.3 | > 50 | 
O=C(Cc1ccccc1C(F)(F)F)NN=Cc1cn(Cc2ccccc2)c2ccccc12 [Compound 5p, (E)-N′-[(1-benzyl-1H-indo1-3-yl)methylene]-2-(2-(trifluoromethyl)phenypacetohydrazide] | 25.67 | 24.6 ± 0.1 | 83.1 | > 50 | 
O=C(Cc1ccc(F)cc1F)NN=Cc1cn(Cc2ccccc2)c2ccccc12 [Compound 5q, (E)-N′-[(1-benzyl-1H-indo1-3-yl)methylene]-2-(2,4-difluorophenypacetohydrazide] | 41.09 | 37.6 ± 0.2 | 79.5 | > 50 | 
O=C(Cc1cc(F)cc(F)c1)NN=Cc1cn(Cc2ccccc2)c2ccccc12 [Compound 5r, (E)-N′-[(1-benzyl-1H-indo1-3-yl)methylene]-2-(3,5-difluorophenyl)acetohydrazide] | 36.18 | 31.6 ± 0.1 | 84.1 | > 50 | 
O=C(Cc1cc(F)ccc1F)NN=Cc1cn(Cc2ccccc2)c2ccccc12 [Compound 5s, (E)-N′-[(1-benzyl-1H-indo1-3-yl)methylene]-2-(2,5-difluorophenyl)acetohydrazide] | 38.14 | 29.4 ± 0.8 | 86.3 | > 50 | 
O=C(NN=Cc1cn(Cc2ccccc2)c2ccccc12)c1cccc2ccccc12 [Compound 5u, (E)-N′-[(1-benzyl-1H-indo1-3-yl)methylene]-1-naphthohydrazide] | 30.59 | 26.6 ± 0.1 | 83.6 | > 50 | 
Cc1ccccc1C(=O)NN=Cc1cn(Cc2ccccc2)c2ccccc12 [Compound 5v, (E)-N′-[(1-benzyl-1H-indo1-3-yl)methylene]-2-methylbenzohydrazide] | 28.11 | 29.4 ± 0.8 | 81 | > 50 | 23.1 ± 0.6
